In patent publication US5955578A, “Polypeptide-polymer conjugates active in wound healing” (La Jolla Cancer Research Foundation, priority 1995, dated 1999):
Where no end group is shown, it is not given here. [ ]: non-standard residue; d: D form.

What was measured:
[1] = tested on: full thickness skin incisions; experiment: Wound tensile strength in rat full thickness dermal incisions; assay type: in vivo, Wistar Furth rats
Method: Wistar Furth adult male rats (175-250g) were anesthetized by intraperitoneal injection of pentobarbital (60 mg/kg body weight). The rats dorsal area was closely shaved, and each animal was positioned and secured for surgery. Using aseptic technique, five full thickness skin incisions, 1.5 cm long, were made on the dorsal area. Each incision was treated with 0.05-0.10 ml of a blind sample of the peptide RRRRRRGDSPK-conjugated to hyaluronate or with 0.05-0.10 ml of human fibronectin (3 mg/ml in PBS, Colloborative Research, Bedford, Mass.) or rat fibronectin (2 mg/ml in PBS, Telios Pharmaceuticals, San Diego, Calif.) or was left untreated as a control. After treatment, the incisions were closed using standard 4-0 nylon sutures for placement of 5 to 7 interrupted sutures. The rats were returned to their cages for recovery and observation. At post operative days 2 through 7 and 10, six animals were anesthetized as above and were euthanized by an intracardiac injection of 0.5 cc of T-61.
Following euthanasia, the pelt was removed from the rat and 5 mm wide by 2 cm long skin strips bisecting incisions were prepared. Histological specimens from the skin adjacent to the tensile strength strip were also taken. To measure tensile strength, one end of the strip was clipped using a 1 mm Michel Clipper (Militex Instruments Co.) which was tied to a Grass model FTO3C force displacement transducer. The other end of the strip was clipped using a light weight hemostat which was attached to a Harvard Model 901 push-pull infusion pump (Harvard Instruments, Millis, Mass.) using cotton thread over a pulley. The transducer was attached to a Grass polygraph (Model 7D) for recording the results. After calibration, the pump was turned on to pull at the rate of 64 mm/min. The amount of force required to pull the skin apart at the incision was recorded on the polygraph.

[2] = tested on: PVA sponges implanted under the skin; experiment: Polyvinylalcohol sponge implant model; assay type: in vivo, rats
Method: Peptide-hyaluronate conjugates were tested using the model of Davidson, et al., J. Cell Biol. 100: 1219-1227 (1985), which is incorporated herein by reference. This model involves the implantation of inert PVA sponges loaded with the conjugates or control materials under the skin of rats. The sponges were removed from the animals at 4 to 10 days after implantation and analyzed for cell ingrowth number and type and as collagen content, blood vessel formation (angiogenesis) and inflammatory response, as well as persistence of the conjugate in the wound.

[3] = In vitro assays of the type described in Pierschbacher et al. (1983); assay type: cell-based
dry eye condition = experiment: Dry eye syndrome induced by excision of tear ducts; assay type: in vivo; conditions: cats; eye drops from day 17 to day 43; conjugate at 100 mg/ml
Method: The dry eye conditon was induced in six cats on day zero by the excision of tear ducts from the eyes. The cats were divided into two groups and treated as follows:
Group one was treated with two drops of human fibronectin, 3 mg/ml, a day twice a day from day 17 to day 34, and two drops a day three times a day from day 34 to 43. Group two was treated with two drops of chondroitin sulfate-peptide conjugate, G(dR)5 G3 (dR)GDSPASSK 100 mg/ml, a day twice a day from days 17 to 34, and two drops a day three times a day from day 34 to day 43.

[4] = early time points, effect diminishing at later time points

For “RRRRRRGDSPK-conjugated to hyaluronate: peptide RRRRRRGDSPK coupled to hyaluronic acid by EDC, method of Example II (also: conjugated to hyaluronic acid by EDC)”, the “wound strength, % of the strength of untreated wounds” value ([1]; day 5 after incision (maximum effect), 0.05-0.10 ml per incision) was 211%, the “wound strength versus untreated control” value ([1]; days 3 through 7 after incision) was “increased” and the angiogenesis [2, 4] was “increased”. The collagen secretion [2, 4] was “increased”, the fibroblast migration [2, 4] was “increased” and the “collagen deposition into the sponges versus control sponges” value ([2]; up to the end of the experiment) was “more collagen was continuously deposited”.
With “conjugates employing the peptide G(dR)5 G3 (dR)GDSPASSK: peptide G(dR)5G3(dR)GDSPASSK coupled to hyaluronic acid with EDC, 20 to 30% peptide by weight (G[dR][dR][dR][dR][dR]GGG[dR]GDSPASSK; also: coupled to hyaluronic acid with EDC)” the “wound strength, % of control” value ([1]; day 2) was 160%, the “wound strength activity versus control (persistence)” value ([1]; through day 10) was “greater than control” and the “in vitro activity compared with the conjugate of Example V” value [3] was “more activity than the RGGDSPK peptide conjugate”.
With “chondroitin sulfate-peptide conjugate: peptide of Example I, G(dR)5G3(dR)GDSPASSK, coupled to chondroitin sulfate with EDC; 74 mg peptide/g conjugate (G[dR][dR][dR][dR][dR]GGG[dR]GDSPASSK; also: coupled to chondroitin sulfate with EDC)” the “dry eye condition (impression cytology, rose bengal staining)” value (dry eye condition) was “marked reduction of the dry eye condition”.
